Measurements published in PMC9450471 (Computational Biology and Chemistry, 2022).
Where “and” joins values, the source holds several entries; their conditions need not be identical. Identical values can stand only once. Like-named read-outs stand apart in the source and are kept apart here.

Test system: SARS-CoV-2 (Omicron variant, B.1.1.529/BA.5 sublineage)
Format: cell-based
Details: for time at which utmost effectiveness against the Omicron variant is reached: after administration/treatment starter

SMILES | 100% CPE Inhibitory Concentration (CPEIC100) | other results
O=c1[nH]cnc2c([C@@H]3N[C@H](CO)[C@@H](O)[C@H]3O)c[nH]c12 [Forodesine] | 1.6 ± 0.065 µM | time at which utmost effectiveness against the Omicron variant is reached: 3.5 to 9.5 h; 100% CPE Inhibitory Concentration (CPEIC100) (listed as forodesine): 1.6 µM
CC(C)Nc1nc2cc(Cl)c(Cl)cc2n1[C@H]1O[C@@H](CO)[C@H](O)[C@@H]1O [Maribavir] | 7.986 ± 0.277 µM | –
CC(C)C(=O)OC[C@H]1O[C@@H](n2ccc(NO)nc2=O)[C@H](O)[C@@H]1O [Molnupiravir] | 6.19 ± 0.275 µM | 100% CPE Inhibitory Concentration (CPEIC100) (listed as molnupiravir): 6.19 µM
COc1nc(N)nc2c1ncn2[C@@H]1O[C@H](CO)[C@@H](O)[C@@H]1O [Nelarabine] | 4.105 ± 0.149 µM | –
CCC(CC)COC(=O)[C@H](C)N[P@](=O)(OC[C@H]1O[C@@](C#N)(c2ccc3c(N)ncnn23)[C@H](O)[C@@H]1O)Oc1ccccc1 [Remdesivir] | 5.883 ± 0.255 µM | 100% CPE Inhibitory Concentration (CPEIC100) (listed as remdesivir): 5.883 µM
CC(C)=CCNc1ncnc2c1ncn2[C@@H]1O[C@H](CO)[C@@H](O)[C@H]1O [Riboprine, N ^6-(2-Isopentenyl)adenosine] | 1.11 µM and 1.11 ± 0.047 µM | time at which utmost effectiveness against the Omicron variant is reached: 3.5 to 9.5 h
OC[C@H]1O[C@@H](n2cnc3c(N[C@@H]4CCOC4)ncnc32)[C@H](O)[C@@H]1O [Tecadenoson] | 7.645 ± 0.24 µM | –
Nc1ncnc2c1ncn2[C@@H]1O[C@H](CO)[C@@H](O)[C@@H]1O [Vidarabine, Arabinosyladenine] | 8.042 ± 0.288 µM | –
